Source: ChEMBL document CHEMBL3580625, “The synthesis and functional evaluation of a mitochondria-targeted hydrogen sulfide donor, (10-oxo-10-(4-(3-thioxo-3H-1,2-dithiol-5-yl)phenoxy)decyl)triphenylphosphonium bromide (AP39)” (Medchemcomm, 2014)
Active and inactive are the calls of the source. No cut-off for these calls is given here.

Assays:
hCMEC/D3 [1] = experiment: (§1) Cytoprotective activity in human CMEC/D3 cells assessed as inhibition of SIN-1-induced oxidative stress-mediated toxicity by measuring cell viability at 100 nM preincubated for 1 hr followed by SIN-1 induction measured after 24 hrs by Alamar blue assay; format: functional, cell-based
hCMEC/D3 [2] = experiment: (§2) Cytoprotective activity in human CMEC/D3 cells assessed as inhibition of H2O2-induced oxidative stress-mediated toxicity by measuring cell viability at 100 nM preincubated for 1 hr followed by H2O2 induction measured after 24 hrs by Alamar blue assay; format: functional, cell-based
hCMEC/D3 [3] = experiment: (§3) Cytoprotective activity in human CMEC/D3 cells assessed as inhibition of 4-HNE-induced oxidative stress-mediated toxicity by measuring cell viability at 100 nM preincubated for 1 hr followed by 4-HNE induction measured after 24 hrs by Alamar blue assay; format: functional, cell-based
hCMEC/D3 [4] = experiment: as §1, with “assay in presence of 5-(4-hydroxyphenyl)-3H-1,2-dithiole-3-thione” for “assay”; format: functional, cell-based
hCMEC/D3 [5] = experiment: as §2, with “assay in presence of 5-(4-hydroxyphenyl)-3H-1,2-dithiole-3-thione” for “assay”; format: functional, cell-based
hCMEC/D3 [6] = experiment: as §3, with “assay in presence of 5-(4-hydroxyphenyl)-3H-1,2-dithiole-3-thione” for “assay”; format: functional, cell-based
hCMEC/D3 [7] = experiment: Induction of H2S production in human CMEC/D3 cells after 1 hr by WSP-1 probe-based fluorescence assay; format: functional, cell-based
Mus musculus [8] = organism: Mus musculus; experiment: Induction of H2S production in mouse bEND.3 cells at 100 nM after 1 hr by AzMC fluorescent probe-based inverted microscopic analysis; format: functional, cell-based
Mus musculus [9] = organism: Mus musculus; experiment: Induction of H2S production in mitochondria of mouse bEND.3 cells at 100 nM after 1 hr by MitoTracker Red fluorescent probe-based inverted microscopic analysis; format: functional
[10] = Cytotoxicity against human CMEC/D3 cells up to 5 uM after 24 hrs by Alamar blue assay relative to vehicle-treated control; format: cell-based; settings: hcmec/d3, 24 h
hCMEC/D3 [11] = experiment: Cytoprotective activity in human CMEC/D3 cells assessed as inhibition of SIN-1-induced oxidative stress-mediated loss of mitochondrial membrane potential at 100 nM preincubated for 1 hr followed by SIN-1 induction measured after 24 hrs by TMRM fluorescent probe-based fluorimetric analysis; format: functional, cell-based
hCMEC/D3 [12] = experiment: Cytoprotective activity in human CMEC/D3 cells assessed as inhibition of H2O2-induced oxidative stress-mediated loss of mitochondrial membrane potential at 100 nM preincubated for 1 hr followed by H2O2 induction measured after 24 hrs by TMRM fluorescent probe-based fluorimetric analysis; format: functional, cell-based
hCMEC/D3 [13] = experiment: Cytoprotective activity in human CMEC/D3 cells assessed as inhibition of 4-HNE-induced oxidative stress-mediated loss of mitochondrial membrane potential at 100 nM preincubated for 1 hr followed by 4-HNE induction measured after 24 hrs by TMRM fluorescent probe-based fluorimetric analysis; format: functional, cell-based
hCMEC/D3 [14] = experiment: Cytoprotective activity in human CMEC/D3 cells assessed as inhibition of SIN-1-induced mitochondrial production of reactive oxygen species at 100 nM preincubated for 1 hr followed by SIN-1 induction measured after 24 hrs by MitoSox Red probe-based fluorescence assay; format: functional, cell-based
hCMEC/D3 [15] = experiment: Cytoprotective activity in human CMEC/D3 cells assessed as inhibition of H2O2-induced mitochondrial production of reactive oxygen species at 100 nM preincubated for 1 hr followed by H2O2 induction measured after 24 hrs by MitoSox Red probe-based fluorescence assay; format: functional, cell-based
hCMEC/D3 [16] = experiment: Cytoprotective activity in human CMEC/D3 cells assessed as inhibition of 4-HNE-induced mitochondrial production of reactive oxygen species at 100 nM preincubated for 1 hr followed by 4-HNE induction measured after 24 hrs by MitoSox Red probe-based fluorescence assay; format: functional, cell-based
[17] = Cytotoxicity against human CMEC/D3 cells assessed as effect on mitochondrial membrane potential at 100 nM by TMRM fluorescent probe-based fluorimetric analysis; format: cell-based; settings: hcmec/d3, 0.1 µM
[18] = Cytotoxicity against human CMEC/D3 cells assessed as effect on mitochondrial oxidant production at 100 nM by MitoSox Red probe-based fluorescence assay; format: cell-based; settings: hcmec/d3, 0.1 µM
hCMEC/D3 [19] = experiment: Cytoprotective activity in human CMEC/D3 cells assessed as inhibition of rotenone-induced mitochondrial production of reactive oxygen species at 100 nM preincubated for 1 hr followed by rotenone induction by MitoSox Red probe-based fluorescence assay; format: functional, cell-based
hCMEC/D3 [20] = experiment: Cytoprotective activity in human CMEC/D3 cells assessed as inhibition of rotenone-mediated reduction of ATP level at 100 nM preincubated for 1 hr followed by rotenone induction measured after 18 hrs by firefly lantern luciferase reporter assay; format: functional, cell-based

SMILES	inhibition (hCMEC/D3 [1])	inhibition (hCMEC/D3 [2])	inhibition (hCMEC/D3 [3])	inhibition (hCMEC/D3 [4])	inhibition (hCMEC/D3 [5])	inhibition (hCMEC/D3 [6])	Activity (hCMEC/D3 [7])	Activity (Mus musculus [8])	Activity (Mus musculus [9])	Activity [10]	inhibition (hCMEC/D3 [11])	inhibition (hCMEC/D3 [12])	inhibition (hCMEC/D3 [13])	inhibition (hCMEC/D3 [14])	inhibition (hCMEC/D3 [15])	inhibition (hCMEC/D3 [16])	Activity [17]	Activity [18]	inhibition (hCMEC/D3 [19])	inhibition (hCMEC/D3 [20])
Oc1ccc(-c2cc(=S)ss2)cc1	inactive	inactive	inactive																	
O=C(O)CCCCCCCCC[P+](c1ccccc1)(c1ccccc1)c1ccccc1	inactive	inactive	inactive	inactive	inactive	inactive														
O=C(CCCCCCCCC[P+](c1ccccc1)(c1ccccc1)c1ccccc1)Oc1ccc(-c2cc(=S)ss2)cc1.[Br-]							Dose-dependent effect	Active	Active	Non-toxic	Active	Active	Active	Active	Active	Active	Non-toxic	Non-toxic	Active	Active
